# Test results: paper PMC9068772, “Discovery of first-in-class nanomolar inhibitors of heptosyltransferase I reveals a new aminoglycoside target and potential alternative mechanism of action” (Scientific Reports, 2022)
# Values joined by “and” are separate entries in the source; they are usually repeats but may differ in a detail not shown here. Identical values can stand only once.
# Columns and labels:
# [1] = molecular target: T1, Heptosyltransferase I (HepI) WT (Escherichia coli, UniProt P24173); assay: HepI inhibition, ADP/NADH coupled assay (wild type); assay type: biochemical, E. coli K12; settings: for kcat: HepI WT in presence of inhibitor; for Ki: 10 μM ODLA, inhibitor varied; for Type of inhibition with ODLA: excess ADPH, ODLA varied, Lineweaver–Burk, Dixon, Cornish-Bowden; for Type of inhibition against ADPH: excess ODLA, ADPH varied; for ΔG (kcal/mol) Exp: Gibbs equation with Ki as equilibrium constant
# T1 construct: made in house; host or cells: E. coli One Shot BL-21-AI
# Experimental: (§1) As previously reported[11],[14],[15], an ADP/NADH coupled assay was used to monitor HepI activity by monitoring the absorbance change at 340 nm at 37 °C on a Cary Bio 100 UV–Vis Spectrometer. Under normal conditions, the assay buffer was composed of 50 mM HEPES, 50 mM KCl, 10 mM MgCl2, pH 7.5. The coupled enzyme reaction additionally contained 100 μM phosphoenolpyruvate, 100 μM NADH, 100 μM dithiothreitol (DTT) and 0.05 U/μL of both pyruvate kinase and lactate dehydrogenase. 100 μM ADPH was used when ODLA concentration was varied and 100 μM ODLA was used when ADPH was varied. Once a stable baseline was established (~ 5 min), the reaction was initiated by addition of HepI to a final concentration of 50 nM or 100 nM (for high and lower substrate concentrations respectively) and all reported reaction rates are after background subtraction. When running 12 samples at once, plastic cuvette stirs and a repeat pipettor was used to inject 200 μL enzyme. Inhibition of HepI was monitored using the same ADP/NADH coupled assay, all conditions of the assay were the same as previously described unless otherwise stated. Ki values for each of the compounds were determined by varying compound final concentration from 100 μm to 10 nm, and a final concentration of 10 μM ODLA. Competition assays against ADPH were done with excess ODLA (100 μM) and varying ADPH from 2–0.25 μM. Competition assays against ODLA were done with excess ADPH (100 μM) and varying ODLA from 2–0.25 μM. Reactions were started with addition of enzyme and inhibitor was varied from 30–0.01 μM. Kinetics were fit to Lineweaver-Burke (Eq. 1), competitive (Eq. 2), non-competitive (Eq. 3), mixed (Eq. 4), Dixon (Eq. 5), or Cornish-Bowden (Eq. 6) models. All fitting and plotting was done through MATLAB R2018A.1 1/V1/[S]=KM/Vmax[S]+1/Vmax 2 V[S]=Vmax[S]/KM1+[I]/Ki+[S] 3 V[S]=Vmax[S]/1+([I]/Ki)/KM+[S] 4 V[S]=Vmax[S]/KM(1+[I]/Ki)+[S](1+[I]/αKi) 5 1/V[I]=KM1+I/Ki+[S]1+I/αKi/Vmax[S] 6 [S]/V[I]=KM1+I/Ki+[S]1+I/αKi/Vmax
# HepI R61A = molecular target: T2, HepI R61A (Escherichia coli, UniProt P24173, R61A); assay: HepI inhibition, ADP/NADH coupled assay (R61A mutant); assay type: biochemical, E. coli K12
# T2 construct: made in house; host or cells: E. coli One Shot BL-21-AI (stated for HepI in general)
# Experimental: as §1
# HepI R63A = molecular target: T3, HepI R63A (Escherichia coli, UniProt P24173, R63A); assay: HepI inhibition, ADP/NADH coupled assay (R63A mutant); assay type: biochemical, E. coli K12
# T3 construct: made in house; host or cells: E. coli One Shot BL-21-AI (stated for HepI in general)
# Experimental: as §1
# HepI = molecular target: T4, HepI (Escherichia coli, UniProt P24173); assay: Circular dichroism thermal melt of HepI; assay type: binding, E. coli K12; settings: CD melt; for Increase in unfolding compared to apo HepI: HepI plus inhibitor, no ODLA; for Difference in melting temperature of HepI•ODLA complex caused by inhibitor: destabilization of HepI•ODLA
# T4 construct: made in house; host or cells: E. coli One Shot BL-21-AI
# Experimental: Circular dichroism melt experiments were performed in a Jasco J-810 spectropolarimeter in Starna 21-Q-2 cells (minimum volume 400 µL) sealed with Teflon tape to prevent evaporation. Parameters include 3 accumulations of data collected between 195–275 nm as a function of temperature (10–95 °C with 5° increments) at a ramp rate of 2°/min and a scanning rate of 50 nm/min. Samples were prepared by diluting a mixture of 5 μM HepI and some combination of 250 μM substrate/product and/or 100 μM inhibitor in a buffer of 10 mM Tris–HCl and 100 mM KCl (pH = 7.5). CD data was analyzed via in house script written in MATLAB R2018A that average a set of triplicate data, normalizes to a percent unfolded (assuming the protein is fully folded at 5 °C) at 222 nm as a function of temperature and fits to a sigmoid curve to determine the melt temperature (TM).
# [2] = system: capsular polysaccharide (cps) band of E. coli K12 total lipid extract; assay: Capsular polysaccharide band density on silver-stained gels; assay type: cell-based
# Experimental: The assays were prepared by plating E. coli K12 onto an LB-agar plate and grown overnight (12–18 h)[60]. A colony forming unit was chosen to inoculate 10 mL of fresh LB media in a tightly capped 15 mL falcon tube and placed in an incubator (no agitation) at 37 °C for exactly 24 h to increase the number of viable cells for inoculation of the plate and thusly reproducibility in highly variable growth patterns. A 96-well plate was then filled with a variety of inhibitor concentrations taken from stock solutions made up in ultra-pure water allowing for one row to remain free of the inhibitor. Each inhibitor concentration was given 3-wells to ensure a triplicate of data is collected at once. With the same fresh media used to make the overnight culture, the overnight growths were added to the plate in a 1:1000 dilution (total volume 200 uL) and the plate sealed with clear adhesive plastic sealant. One row has been designated for uncultured media to be used for pre-blanking measurements and to ensure that the media isn’t growing spontaneously.
# As previously established, lipid extraction occurs through lysis of surface polysaccharides with a lysis buffer containing 1% SDS, 20% glycerol, 100 mM Tris–HCl and 0.04% bromophenol blue at a pH 6.8[61]. The cellular concentrations from each well were determined using the last collected OD600 corrected using Eq. (8), centrifuged and resuspended in the correct volume of lysis buffer to obtain 4 × 10^8 cells/100 µL solution. Addition of Proteinase K at 1 mg/mL concentration was incubated for 1 h at 37 °C. These samples were then loaded onto a 15% separating, 6% stacking SDS–polyacrylamide gel (recipes received from https://www.bio-rad.com/) in a 19:1 acrylamide to bis-acrylamide ratio and run with a voltage gradient from 50–150 V. The gels were then stained using the protocol described previously with no modifications[62] and imaged using a scanner.
# Relative LPS band density was determined using analysis methods provided by ImageJ software. The band pixel density were analyzed relative to a purified sample of heptosylated O-deacylated Lipid A at 100 nM. The plot was generated of relative band density vs. concentration of inhibitor[63].
# T4 sequence (P24173 whole entry): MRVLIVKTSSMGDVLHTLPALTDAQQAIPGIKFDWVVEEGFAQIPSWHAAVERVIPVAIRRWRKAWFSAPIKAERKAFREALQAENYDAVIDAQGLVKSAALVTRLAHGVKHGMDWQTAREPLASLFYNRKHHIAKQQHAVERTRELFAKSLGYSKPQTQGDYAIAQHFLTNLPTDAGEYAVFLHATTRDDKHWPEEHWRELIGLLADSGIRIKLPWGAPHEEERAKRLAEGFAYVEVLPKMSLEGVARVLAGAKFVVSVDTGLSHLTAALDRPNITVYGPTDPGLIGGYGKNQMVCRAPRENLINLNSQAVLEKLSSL
# T1 sequence (P24173 whole entry): as above
# T3 sequence (P24173 whole entry R63A): as the sequence (P24173 whole entry) above, with R63A counted along it
# T2 sequence (P24173 whole entry R61A): as the sequence (P24173 whole entry) above, with R61A counted along it
compound,measurement,setting,value
[H]/N=C(/N)N[C@H]1[C@H](O)[C@@H](O)[C@H](O[C@@H]2O[C@@H](C)[C@](O)(C=O)[C@H]2O[C@@H]2O[C@@H](CO)[C@H](O)[C@@H](O)[C@@H]2NC)[C@@H](N/C(N)=N\[H])[C@@H]1O [Streptomycin],kcat,[1],0.162 ± 0.008 s⁻¹
same,Ki,[1]; HepI WT,595 ± 90 nM
same,Type of inhibition with ODLA,[1]; HepI WT,Non-competitive
same,Type of inhibition against ADPH,[1]; HepI WT,non-competitive
same,ΔG (kcal/mol) Exp,[1]; HepI WT,-8.5 ± 0.1 kcal/mol
same,Ki,HepI R61A,7890 ± 3590 nM
same,ΔΔG (kcal/mol) Exp,HepI R61A; Arg61Ala relative to WT,1.5 ± 0.2 kcal/mol
same,ΔG (kcal/mol) Exp,"HepI R61A; Arg61Ala, from Ki",-7.0 ± 0.2 kcal/mol
same,kcat,HepI R61A; HepI R61A in presence of inhibitor,0.142 ± 0.031 s⁻¹
same,Ki relative to WT,HepI R61A; HepI R61A vs WT,increased the Ki values an order of magnitude
same,Ki,HepI R63A,6660 ± 699 nM
same,ΔΔG (kcal/mol) Exp,HepI R63A; Arg63Ala relative to WT,1.4 ± 0.1 kcal/mol
same,ΔG (kcal/mol) Exp,"HepI R63A; Arg63Ala, from Ki",-7.1 ± 0.1 kcal/mol
same,kcat,HepI R63A; HepI R63A in presence of inhibitor,0.198 ± 0.024 s⁻¹
same,Ki relative to WT,HepI R63A; HepI R63A vs WT,increased the Ki values an order of magnitude
same,Increase in unfolding compared to apo HepI,HepI,~ 20% and 15–20%
same,Difference in melting temperature of HepI•ODLA complex caused by inhibitor,HepI,not observed
same,Melting temperature of HepI•ODLA complex with inhibitor,HepI; inhibitor added to HepI•ODLA,no different from substrate or product alone
same,Relative pixel density from cps band,"[2]; 12.5 ng/mL streptomycin, relative to 0 ng/mL = 1",1.019
same,Relative pixel density from cps band,[2]; 15 ng/mL streptomycin,1.115
same,Relative pixel density from cps band,[2]; 17.5 ng/mL streptomycin,1.105
same,Relative pixel density from cps band,[2]; 20 ng/mL streptomycin,1.323
same,Relative pixel density from cps band,[2]; 22.5 ng/mL streptomycin,1.458
same,Relative pixel density from cps band,[2]; 25 ng/mL streptomycin,1.335
same,Relative pixel density from cps band,[2]; 27.5 ng/mL streptomycin,1.687
same,Relative pixel density from cps band,[2]; 30 ng/mL streptomycin,1.477
same,Relative pixel density from cps band,[2]; 32.5 ng/mL streptomycin,1.070
same,Relative pixel density from cps band,[2]; 35 ng/mL streptomycin,0.654
NC[C@H]1O[C@H](O[C@H]2[C@H](O)[C@@H](O[C@H]3O[C@H](CO)[C@@H](O)[C@H](N)[C@H]3O)[C@H](N)C[C@@H]2N)[C@H](N)C[C@@H]1O [Tobramycin],"α value, mixed model of inhibition with ODLA",[1]; HepI WT,greater than one
same,kcat,[1],0.15 ± 0.005 s⁻¹
same,Ki,[1]; HepI WT,1100 nM and 1130 nM
same,Type of inhibition with ODLA,[1]; HepI WT,Mixed competitive
same,Type of inhibition against ADPH,[1]; HepI WT,uncompetitive
same,ΔG (kcal/mol) Exp,[1]; HepI WT,-8.1 ± 0.1 kcal/mol
same,Increase in unfolding compared to apo HepI,HepI,20%
same,Melting temperature (Tm) of HepI with ligand,HepI; HepI plus ligand alone,~ 37 °C
same,Melt of HepI with ADPH and inhibitor,HepI; compared with HepI with ADPH alone,no changes from HepI with ADPH alone
same,Difference in melting temperature of HepI•ODLA complex caused by inhibitor,HepI,> 30 °C
same,Extent of unfolding of HepI•ODLA complex with inhibitor,HepI; inhibitor added to HepI•ODLA,about 70%
same,Melting temperature of HepI•ODLA complex with inhibitor,HepI; inhibitor added to HepI•ODLA,~ 58 °C
same,Relative pixel density from cps band,"[2]; 4 ng/mL tobramycin, relative to 0 ng/mL = 1",1.752
same,Relative pixel density from cps band,[2]; 4.5 ng/mL tobramycin,4.293
same,Relative pixel density from cps band,[2]; 5 ng/mL tobramycin,7.121
same,Relative pixel density from cps band,[2]; 5.5 ng/mL tobramycin,5.786
same,Relative pixel density from cps band,[2]; 6 ng/mL tobramycin,3.692
same,Relative pixel density from cps band,[2]; 6.5 ng/mL tobramycin,2.319
same,Relative pixel density from cps band,[2]; 7 ng/mL tobramycin,1.163
same,Relative pixel density from cps band,[2]; 7.5 ng/mL tobramycin,1.421
same,Relative pixel density from cps band,[2]; 8 ng/mL tobramycin,1.641
same,Relative pixel density from cps band,[2]; 9 ng/mL tobramycin,1.606
